Laboratory results published in patent publication US10265132B2, “Antimicrobial elastomeric articles” (ALLEGIANCE CORPORATION, priority 2012, dated 2019).

What was measured:
[1] = system: E. coli; assay: Antimicrobial activity (log reduction) of coated gloves against E. coli, 5 minute exposure time
Procedure: (§1) Antimicrobial Activity: The antimicrobial activity of sample 1-1 was tested before and after aging against E. coli and MRSA with a 5 minute exposure time:
(§2) The coating composition and formulation fabrication remained the same as describe in Example 1. Sample 2-1 describes coated gloves that were stored in desiccated environments (described above in Example 1) before and after the application of the antimicrobial coating. Samples 2-2 and 2-3 represent coated gloves that were pre- and post-conditioned (using the technique described above in Example 1), respectively. Sample 2-4 describes coated gloves that were not desiccated before or after application of the antimicrobial coating. Samples 2-1 through 2-4 were tested before and after conditioning against E. coli and MRSA with a 5 minute exposure time.
The coating composition, formulation fabrication, and coating application method remained the same as described in Example 1, Sample 3-1 describes antimicrobial-coated gloves that were exposed to 23° C. with a relative humidity of 45%. Sample 3-2 describes antimicrobial-coated gloves that were exposed to 23° C. with a relative humidity of 55%. Sample 3-3 describes antimicrobial-coated gloves that were exposed to 23° C. with a relative humidity of 75%. All samples were tested after one and two weeks exposure to the temperature and humidity levels. Antimicrobial efficacy was recorded against E. coli after a 5 minute exposure time. […]
(§3) The formulation fabrication and coating application were the same as described in Example 1. […] These formulations were then applied to the gloves and the concentration of CHG needed on the coated glove in order to achieve at least 4 log efficacy was measured. The concentration of CHG was measured using UV-Visible spectroscopy with the assistance of a sodium hypobromite indicator. CHG was extracted from the glove using water and the unknown concentration was calculated versus a predetermined standard curve. The antimicrobial efficacy after an exposure time of 5 minutes was determined against E. coli and MRSA.

[2] = system: MRSA; assay: Antimicrobial activity (log reduction) of coated gloves against MRSA, 5 minute exposure time; parameters: species or system methicillin-resistant Staphylococcus aureus
Procedure: as §1, §2
The coating composition, formulation fabrication, and coating application method remained the same as described in Example 1. Antimicrobial gloves were packed into two packaging prototypes. The prototypes contained the antimicrobial coated gloves and the prototypes were subjected to outside conditions meant to simulated real world conditions experienced by medical glove products. Sample 4-1 is a control glove that was not packaged. Sample 4-2 is a packaging prototype comprised of Amcor aluminum foil laminate packaging containing antimicrobial-coated gloves and desiccant. […]
as §3

[3] = system: broad spectrum of microbes; assay: Minimum concentration of CHG on coated glove needed for 4 log efficacy in 5 minutes; conditions: 5 minutes exposure, E. coli and MRSA
Procedure: The formulation fabrication and coating application were the same as described in Example 1. The concentration of the active component, CHG, was varied in the formulation. These formulations were then applied to the gloves and the concentration of CHG needed on the coated glove in order to achieve at least 4 log efficacy was measured. The concentration of CHG was measured using UV-Visible spectroscopy with the assistance of a sodium hypobromite indicator. CHG was extracted from the glove using water and the unknown concentration was calculated versus a predetermined standard curve. The antimicrobial efficacy after an exposure time of 5 minutes was determined against E. coli and MRSA.

[4] = CHG concentration on glove 2.09 μg/cm^2, 5 minutes exposure
[5] = CHG concentration on glove 7.63 μg/cm^2, 5 minutes exposure
[6] = CHG concentration on glove 11.90 μg/cm^2, 5 minutes exposure

N=C(NCCCCCCNC(=N)NC(=N)Nc1ccc(Cl)cc1)NC(=N)Nc1ccc(Cl)cc1.O=C(O)[C@H](O)[C@@H](O)[C@H](O)[C@H](O)CO.O=C(O)[C@H](O)[C@@H](O)[C@H](O)[C@H](O)CO [CHG, chlorhexidine digluconate]
Log Reduction E. coli [1, 4]: 1.67 log
Log Reduction E. coli [1, 5]: 4.18 log
Log Reduction E. coli [1, 6]: 4.72 log
Log Reduction MRSA [2, 4]: 3.08 log
Log Reduction MRSA [2, 5]: 4.16 log
Log Reduction MRSA [2, 6]: 4.06 log
CHG needed to offer 4 log antimicrobial efficacy [3]: about 7.6 μg
